Reference: article PMC4057235, “Development and Evaluation of Small Peptidomimetic Ligands to Protease-Activated Receptor-2 (PAR2) through the Use of Lipid Tethering” (PLoS ONE, 2014)
Read-outs that look alike come from different tables or passages of the source. Each block holds one compound with its values, some of them ahead of it. Square brackets hold non-standard residues; d marks the D form. Peptide text beside a SMILES is read from it. * marks the point of attachment. 4Thiazolecarbonyl(2-NH2) = Nc1nc(C(=O)*)cs1; Cha = N[C@@H](CC1CCCCC1)C(=O)O

What was measured:
PAR2 = molecular target: T1, PAR2 (Homo sapiens, UniProt P55085); assay: xCELLigence RTCA in vitro physiological response, 16HBE14o- cells; format: cell-based; conditions: for EC50: peak Normalized Cell Index within 4 hr
T1 construct: 16HBE14o- cells on E-plates in growth medium; endogenous in cells; host or cells: 16HBE14o- cells
T1 sequence (P55085 26-397): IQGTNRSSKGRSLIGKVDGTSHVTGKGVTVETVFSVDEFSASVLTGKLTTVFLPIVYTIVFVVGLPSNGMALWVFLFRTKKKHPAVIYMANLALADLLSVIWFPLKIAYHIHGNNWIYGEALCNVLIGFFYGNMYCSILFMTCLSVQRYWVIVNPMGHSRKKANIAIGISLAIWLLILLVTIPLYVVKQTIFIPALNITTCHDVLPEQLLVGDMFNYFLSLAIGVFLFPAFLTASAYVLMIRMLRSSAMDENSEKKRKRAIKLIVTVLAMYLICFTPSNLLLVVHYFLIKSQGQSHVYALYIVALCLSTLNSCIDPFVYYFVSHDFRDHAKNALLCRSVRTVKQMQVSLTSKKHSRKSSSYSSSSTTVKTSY
From the text: 16HBE14o- cells, a SV40 transformed human bronchial epithelial cell line, were obtained through the California Pacific Medical Center Research Institute (San Francisco, CA, USA). Cells were maintained and expanded as previously described. Briefly, cell lines were expanded in tissue culture flasks prior to transfer to 96 well E-plates (Roche) for experiments. Flasks and 96 well E-plates were coated initially with a matrix coating solution (88% Lechner and LaVeck basal medium, 10% bovine serum albumin (BSA; from 1 mg/ml stock), 1% bovine collagen type I (from 2.9 mg/ml stock), and 1% human fibronectin (from 1 mg/ml stock solution) and incubated for 2 hr at 37°C, after which the coating solution was removed and allowed to dry for at least 1 hr. 16HBE14o- cells were plated at a concentration of 1×10^5 cells/cm^2 and grown in Eagle’s Minimal Essential Medium supplemented with 10% Fetal Bovine Serum (FBS), 2 mM glutamax, penicillin and streptomycin (growth medium) at 37°C in a 5% CO2 atmosphere. Growth medium was replaced every other day until the cells reached confluence (5–7 days). Cells were then transferred to 96 well E-plates for RTCA, or collagen/fibronectin/BSA coated glass coverslips for Ca^2+ imaging experiments.
16HBE14o- cells on E-plates in growth medium and in a 37°C, 5% CO2 incubator were monitored for the establishment for relative impedance overnight every 15 min using the xCELLigence™ Real Time Cell Analyzer (RTCA, Roche), [28], [30]. When cells reached baseline impedance the next day, and prior to the experiment, the RTCA was moved to room air and temperature where full growth medium was replaced with 100μL modified Hank’s Balanced Saline Solution (HBSS) pre-warmed to 37°C. The RTCA was then allowed to come to room temperature (45–60 min) prior to ligand addition. Each well was then supplemented with 100 µL HBSS containing appropriate ligands to measure concentration response ranges in quadruplicate. Additional wells were used for vehicle controls. Relative impedance in each well was monitored every 30 sec over 4 hr. Peak responses, defined as the maximal change in Normalized Cell Index, were used to define maximal response concentrations and physiological EC50s for each ligand.

MrgprC11 = molecular target: T2, MrgprC11 (Mus musculus, UniProt Q8CIP3); assay: Ca2+ response in MrgprC11 transfected CHO cells; format: cell-based
T2 construct: An MrgprC11 cDNA in pcDNA3.1 vector was transfected into CHO cells; expressed in transfected cells; host or cells: CHO cells, transient transfection with Lipofectamine 2000
T2 sequence (Q8CIP3 1-322): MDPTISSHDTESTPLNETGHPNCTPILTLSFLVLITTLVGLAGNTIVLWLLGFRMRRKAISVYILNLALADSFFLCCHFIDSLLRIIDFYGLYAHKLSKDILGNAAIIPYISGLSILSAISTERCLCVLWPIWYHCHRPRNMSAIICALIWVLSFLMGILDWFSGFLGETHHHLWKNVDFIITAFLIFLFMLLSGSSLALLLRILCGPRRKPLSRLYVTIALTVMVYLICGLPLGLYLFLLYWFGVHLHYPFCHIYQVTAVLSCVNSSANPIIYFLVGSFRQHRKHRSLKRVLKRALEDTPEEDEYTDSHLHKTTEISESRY
Experimental: CHO cells were cultured in DMEM supplemented with 10% FBS and 1% penicillin and streptomycin at 37°C in a 5% CO2 atmosphere. One day before transfection, CHO cells were plated in a 60 mm cell culture dish at a concentration of 1×10^5 cells/cm^2 and grown without antibiotics. An MrgprC11 cDNA in pcDNA3.1 vector was transfected into CHO cells using Lipofectamine™ 2000 (Invitrogen) prior to transfer to coverslips for experiments. Coverslips were coated with 0.1 mg/ml poly-D-lysine (from 2 mg/ml stock) and incubated for 1 hr at room temperature, after which the coating solution was removed and the coverslips were washed twice with double distilled water. CHO cells were seeded on coverslips at a concentration of 1×10^5 cells/cm^2 6 hr after transfection. Transfected cells were incubated for 24 hr prior to Ca^2+ imaging.
16HBE14o- cells or CHO cells were loaded with fura 2-acetomethoxyl ester (CalBiochem or Molecular Probes) for 30 min at room temperature. Cells were washed with HBSS and allowed to sit for at least 20 min prior to digital imaging. For activation and desensitization assay experiments using 16HBE14o- cells, [Ca^2+]i was measured as previously described. Experiments consisted of 20 sec of recording of cells in HBSS to determine resting [Ca^2+]i, followed by a 10 sec wash to introduce ligand and up to 10 min of recording for ligand washes required for desensitization experiments. Briefly, fura-2 fluorescence was observed on an Olympus IX70 microscope with a 40X oil immersion objective after alternating excitation between 340 and 380 nm by a 75 W Xenon lamp linked to a Delta Ram V illuminator (PTI) and a gel optic line. Intracellular Ca^2+ concentration ([Ca^2+]i) for each individual cell in the field of view was calculated by ratiometric analysis of fura-2 fluorescence using equations originally published in [31]. Individual ratios were calculated every sec throughout the experiments. [Ca^2+]i traces over time are averaged [Ca^2+]i of all cells within a field of view (80–120) and are representative of at least 3 experiments. Cells were considered activated by the ligand if their resting [Ca^2+]i was increased above a 200 nM threshold, a 2–4 fold increase above typical resting values. Percent activation graphs are determined from 3–6 experiments for each ligand concentration. Time to threshold in individual cells represent between 200–400 cells from at least 3 experiments at each ligand concentration. Ca^2+ imaging of CHO cells was similar; each ligand concentration tested included at least 3 experiments and a minimum of 200 cells analyzed during each experiment.

mice = assay: In vivo mechanical sensitivity (von Frey) after hindpaw injection; parameters: species or system mouse; conditions: 15 pmoles into plantar hindpaw, 1 and 3 hr post-injection
Experimental: Male ICR mice (Harlan) or PAR2 ^-/- mice and their wild type littermates on a C57Bl/6 background weighing 25–30 grams were used for these studies. Animal protocols were approved by the Institutional Animal Care and Use Committee of The University of Arizona. Compounds were injected into the plantar surface of the hindpaw in a total volume of 25 µL using a 31-gauge needle. Compounds were diluted using sterile saline. Mechanical thresholds were determined using calibrated von Frey filaments (Stoelting Co, Wood Dale, IN) with the up-down method. The experimenter was always blinded to the treatment conditions and animals were randomized such that animals in a single experimental group were never all housed together.

Compound: CCCCCCCCCCCCCCCCNC(=O)COCC(=O)NCCCOCCOCCOCCCNC(=O)COCC(=O)NCCCOCCOCCOCCCNC(=O)COCC(=O)NCCCOCCOCCOCCCNC(=O)[C@H](CCCNC(=N)N)NC(=O)CNC(=O)[C@@H](NC(=O)[C@H](CC(C)C)NC(=O)c1csc(N)n1)[C@@H](C)CC [Compound 2, 2at-LIGR-PEG3-Hdc]
EC50 (PAR2): 0.0021 µM | Ca2+ response (% of cells) (MrgprC11; 100 nM): 0.5%

Compound: CCCCCCCCCCCCCCCCNC(=O)COCC(=O)NCCCOCCOCCOCCCNC(=O)COCC(=O)NCCCOCCOCCOCCCNC(=O)COCC(=O)NCCCOCCOCCOCCCNC(=O)C(CC(C)C)NC(=O)c1csc(N)n1 [Compound 5, 2at-L-PEG3-Hdc]
mechanical hypersensitivity (von Frey) (mice): inactive | mechanical hypersensitivity (von Frey) (mice; listed as 2at-L-PEG 3-Hdc): lacked efficacy | RTCA response / agonism (peak Normalized Cell Index) (PAR2): eliminated ligand activity | RTCA response / agonism (peak Normalized Cell Index) (PAR2; listed as 2at-L-PEG 3-Hdc): eliminated in vitro activity

Compound: CCCCCCCCCCCCCCCCNC(=O)COCC(=O)NCCCOCCOCCOCCCNC(=O)COCC(=O)NCCCOCCOCCOCCCNC(=O)COCC(=O)NCCCOCCOCCOCCCNC(=O)[C@H](CC(C)C)NC(=O)[C@H](CCCNC(=N)N)NC(=O)CNC(=O)[C@@H](NC(=O)[C@H](CC(C)C)NC(=O)c1csc(N)n1)[C@@H](C)CC [Compound 1, 2at-LIGRL-PEG3-Hdc]
EC50 (PAR2): 0.0017 µM | Ca2+ response (% of cells) (MrgprC11; 1 nM): 0% | Ca2+ response (% of cells) (MrgprC11; 10 nM): 2.5% | Ca2+ response (% of cells) (MrgprC11; 100 nM): 10% | Ca2+ response (% of cells) (MrgprC11; 1 µM): 20% | Ca2+ response (% of cells) (MrgprC11; 10 µM): 88 ± 19%

Compound: CCCCCCCCCCCCCCCCNC(=O)COCC(=O)NCCCOCCOCCOCCCNC(=O)COCC(=O)NCCCOCCOCCOCCCNC(=O)COCC(=O)NCCCOCCOCCOCCCNC(=O)[C@@H](NC(=O)[C@H](CC(C)C)NC(=O)c1csc(N)n1)[C@@H](C)CC [Compound 4, 2at-LI-PEG3-Hdc]
EC50 (PAR2): 0.31 µM

Compound: CCCCCCCCCCCCCCCCNC(=O)COCC(=O)NCCCOCCOCCOCCCNC(=O)COCC(=O)NCCCOCCOCCOCCCNC(=O)COCC(=O)NCCCOCCOCCOCCCNC(=O)CNC(=O)[C@@H](NC(=O)[C@H](CC(C)C)NC(=O)c1csc(N)n1)[C@@H](C)CC [Compound 3, 2at-LIG-PEG3-Hdc]
EC50 (PAR2): 0.046 µM

The next lines start with the values.

EC50 (PAR2): 0.086 µM
Compound: CCCCCCCCCCCCCCCCNC(=O)COCC(=O)NCCCOCCOCCOCCCNC(=O)COCC(=O)NCCCOCCOCCOCCCNC(=O)[C@@H](NC(=O)[C@H](CC1CCCCC1)NC(=O)c1csc(N)n1)[C@@H](C)CC [Compound 13, 2at-Cha-I-PEG2-Hdc]

EC50 (PAR2): 0.043 µM
Compound: CCCCCCCCCCCCCCCCNC(=O)COCC(=O)NCCCOCCOCCOCCCNC(=O)COCC(=O)NCCCOCCOCCOCCCNC(=O)[C@@H](NC(=O)[C@H](CC1CCCCC1)NC(=O)c1ccno1)[C@@H](C)CC [Compound 14, 5io-Cha-I-PEG2-Hdc]

EC50 (PAR2): 0.016 µM
Compound: CCCCCCCCCCCCCCCCNC(=O)COCC(=O)NCCCOCCOCCOCCCNC(=O)COCC(=O)NCCCOCCOCCOCCCNC(=O)[C@H](CCCNC(=N)N)NC(=O)CNC(=O)[C@@H](NC(=O)[C@H](CC1CCCCC1)NC(=O)c1csc(N)n1)[C@@H](C)CC [Compound 11, 2at-Cha-IGR-PEG2-Hdc]

EC50 (PAR2): 1.1 µM
Compound: CC[C@H](C)[C@H](NC(=O)[C@H](CC1CCCCC1)NC(=O)c1csc(N)n1)C(N)=O [Compound 9, 2at-Cha-I-NH2]

EC50 (PAR2): 0.49 µM
Compound: CC[C@H](C)[C@H](NC(=O)[C@H](CC1CCCCC1)NC(=O)c1csc(N)n1)C(=O)NCC(=O)N[C@@H](CCCNC(=N)N)C(N)=O [Compound 7, 2at-Cha-IGR-NH2] ({4Thiazolecarbonyl(2-NH2)}-[Cha]IGR-NH2)

RTCA response / agonism (peak Normalized Cell Index) (PAR2): eliminated ligand activity | RTCA response / agonism (peak Normalized Cell Index) (PAR2; listed as 2at-PEG 3-Hdc): eliminated in vitro activity
Compound: CCCCCCCCCCCCCCCCNC(=O)COCC(=O)NCCCOCCOCCOCCCNC(=O)COCC(=O)NCCCOCCOCCOCCCNC(=O)COCC(=O)NCCCOCCOCCOCCCNC(=O)c1csc(N)n1 [Compound 6, 2at-PEG3-Hdc]

EC50 (PAR2): 0.0068 µM
Compound: CCCCCCCCCCCCCCCCNC(=O)COCC(=O)NCCCOCCOCCOCCCNC(=O)COCC(=O)NCCCOCCOCCOCCCNC(=O)[C@H](CCCNC(=N)N)NC(=O)CNC(=O)[C@@H](NC(=O)[C@H](CC1CCCCC1)NC(=O)c1ccno1)[C@@H](C)CC [Compound 12, 5io-Cha-IGR-PEG2-Hdc]
